As a reminder, the inhibition is the drop in the measured response relative to a control, in per cent. A lower inhibition goes with little suppression.

The target in one experiment is T1, human NaV1.5 (Homo sapiens, UniProt Q14524).
T1 construct: host or cells: HEK-293 (transient transfection)
Description: Whole-cell patch-clamp in transfected HEK-293 cells, NaV1.5. It is filed as cell-based. The conditions noted are these: 10 μM and 100 μM, −10 mV. As for the experimental part: (§1) The human embryonic kidney 293 (HEK-293) cell line was obtained from the American Type Culture Collection. HEK-293 cells were cultured in Dulbecco’s modified Eagle’s medium (DMEM-F12, Invitrogen Life Technologies) supplemented with 5% (v/v) fetal bovine serum (FBS) (Thermo Fisher Scientific) and 1% antibiotics (penicillin 100 U/ml y streptomycin 100 μg/ml) (Gibco, Thermo Fisher). The cells were maintained at 37 °C and 5% CO2 atmosphere.
(§2) For the electrophysiological experiments, HEK-293 cells were transiently transfected with cDNA encoding human NaV1.5 (plasmid 145,374, Addgene), KV1.5 (NM_002234), and TASK-1 (NM_002246). […] The cells were incubated for 4 h in transfection medium OptiMEM (Invitrogen). […]
For Nav1.5, the effect of 6f at both concentrations was tested using a repetitive single test voltage pulse at −10 mV (during 20 ms) from a holding potential of −80 mV, with intervals of 5s between pulses. For Kv1.5 and TASK-1, ramp voltage protocols were applied with pulse intervals of 20 s, and the currents were analyzed at +40 mV.
(§3) After recording currents with stable amplitudes, the cells were treated with 6f and applied from the bath solution. Currents were continuously recorded during repetitive pulses until a stable effect was achieved. […] The inhibition percentage was calculated as follows: Inℎibition (%) = 100 ∗ (Icontrol − Idrug)/Icontrol.
Background: The patch-clamp technique gives a direct electrical read-out from membranes.

A further experiment deals with human TASK-1 (Homo sapiens, UniProt O14649). In words: Whole-cell patch-clamp in transfected HEK-293 cells, TASK-1. Also on record: human TASK-1 (KCNK3, NM_002246); expressed in transfected cells. The conditions noted are these: HEK293, +40 mV. The experiment is classed as cell-based. Here is the method:
as §1, §2
For Nav1.5, the effect of 6f at both concentrations was tested using a repetitive single test voltage pulse at −10 mV (during 20 ms) from a holding potential of −80 mV, with intervals of 5s between pulses. For Kv1.5 and TASK-1, ramp voltage protocols were applied with pulse intervals of 20 s, and the currents were analyzed at +40 mV. […]
as §3

Molecules are shown by their SMILES.

human TASK-1, sequence (O14649 whole entry): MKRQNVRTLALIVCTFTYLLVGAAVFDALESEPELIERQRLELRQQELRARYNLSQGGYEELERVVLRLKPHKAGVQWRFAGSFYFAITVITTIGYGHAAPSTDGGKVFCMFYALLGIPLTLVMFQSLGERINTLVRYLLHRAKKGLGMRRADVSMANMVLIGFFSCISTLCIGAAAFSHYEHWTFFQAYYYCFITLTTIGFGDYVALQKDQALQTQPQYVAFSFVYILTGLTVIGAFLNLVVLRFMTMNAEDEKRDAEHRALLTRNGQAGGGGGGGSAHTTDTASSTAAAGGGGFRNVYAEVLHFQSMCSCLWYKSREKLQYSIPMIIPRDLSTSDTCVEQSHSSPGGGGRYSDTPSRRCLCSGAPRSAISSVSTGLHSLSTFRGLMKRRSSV
T1 sequence (Q14524 whole entry): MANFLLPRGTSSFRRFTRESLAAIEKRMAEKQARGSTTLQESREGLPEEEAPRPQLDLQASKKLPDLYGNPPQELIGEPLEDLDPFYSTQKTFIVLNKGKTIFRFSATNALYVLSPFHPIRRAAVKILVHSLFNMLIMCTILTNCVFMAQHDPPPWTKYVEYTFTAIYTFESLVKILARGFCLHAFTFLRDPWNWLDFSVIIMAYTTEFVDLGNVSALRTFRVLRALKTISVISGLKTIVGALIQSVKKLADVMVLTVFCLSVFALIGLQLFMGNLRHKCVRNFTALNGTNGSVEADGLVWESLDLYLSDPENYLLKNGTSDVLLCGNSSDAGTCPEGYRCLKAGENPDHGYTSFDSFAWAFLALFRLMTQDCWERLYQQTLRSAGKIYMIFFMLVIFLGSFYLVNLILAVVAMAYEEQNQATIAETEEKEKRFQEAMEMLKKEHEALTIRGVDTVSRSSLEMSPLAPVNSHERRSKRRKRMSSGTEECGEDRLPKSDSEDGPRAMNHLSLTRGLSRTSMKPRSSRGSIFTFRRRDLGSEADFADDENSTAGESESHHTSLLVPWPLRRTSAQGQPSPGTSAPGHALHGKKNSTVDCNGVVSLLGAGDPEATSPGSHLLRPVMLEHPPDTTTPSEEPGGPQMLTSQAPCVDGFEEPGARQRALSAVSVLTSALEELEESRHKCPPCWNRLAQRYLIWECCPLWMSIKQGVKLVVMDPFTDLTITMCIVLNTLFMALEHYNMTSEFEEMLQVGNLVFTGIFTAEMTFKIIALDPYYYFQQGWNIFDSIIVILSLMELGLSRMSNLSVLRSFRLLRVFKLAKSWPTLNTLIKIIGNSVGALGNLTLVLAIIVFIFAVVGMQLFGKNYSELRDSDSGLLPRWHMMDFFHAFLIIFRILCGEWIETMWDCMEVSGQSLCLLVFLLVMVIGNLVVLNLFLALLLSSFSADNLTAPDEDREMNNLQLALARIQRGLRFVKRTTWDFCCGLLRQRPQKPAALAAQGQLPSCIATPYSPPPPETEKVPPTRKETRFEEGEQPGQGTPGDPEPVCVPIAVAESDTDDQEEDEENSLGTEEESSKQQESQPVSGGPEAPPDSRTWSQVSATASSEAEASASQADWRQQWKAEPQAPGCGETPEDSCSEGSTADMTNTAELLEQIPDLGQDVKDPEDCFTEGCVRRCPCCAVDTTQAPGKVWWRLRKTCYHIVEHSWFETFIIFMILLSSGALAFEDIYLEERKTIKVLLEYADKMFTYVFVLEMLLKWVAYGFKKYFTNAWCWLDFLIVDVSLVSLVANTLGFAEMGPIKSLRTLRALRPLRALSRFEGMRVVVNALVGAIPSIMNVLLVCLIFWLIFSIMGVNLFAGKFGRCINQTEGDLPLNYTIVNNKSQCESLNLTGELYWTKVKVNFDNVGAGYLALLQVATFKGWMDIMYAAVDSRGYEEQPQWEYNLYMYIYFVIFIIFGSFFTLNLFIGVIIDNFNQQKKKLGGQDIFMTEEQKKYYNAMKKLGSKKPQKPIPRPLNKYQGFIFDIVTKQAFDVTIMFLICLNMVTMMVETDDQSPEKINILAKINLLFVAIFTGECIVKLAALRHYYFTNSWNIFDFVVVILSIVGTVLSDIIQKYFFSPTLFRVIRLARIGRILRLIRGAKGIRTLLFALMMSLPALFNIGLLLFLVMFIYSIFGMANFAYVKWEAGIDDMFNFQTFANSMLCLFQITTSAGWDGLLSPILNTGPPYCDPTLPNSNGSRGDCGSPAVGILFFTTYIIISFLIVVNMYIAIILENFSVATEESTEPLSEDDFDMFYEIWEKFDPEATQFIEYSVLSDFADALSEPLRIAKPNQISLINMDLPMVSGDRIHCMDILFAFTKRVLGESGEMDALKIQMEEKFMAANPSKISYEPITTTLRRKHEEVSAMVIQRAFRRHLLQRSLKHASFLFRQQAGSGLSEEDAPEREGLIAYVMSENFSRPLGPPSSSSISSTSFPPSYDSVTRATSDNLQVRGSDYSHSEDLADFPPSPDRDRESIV

Turning to `CCCCN(CCCC)CC(=O)Nc1ccc(OC)cc1OC` [Compound 6f, 2-(dibutylamine)-N-(2,4-dimethoxiphenyl)acetamide], the “Blockade of NaV1.5 in HEK cells” value at human NaV1.5 was “significant blockade by 6f only at 100 μM”. Besides, the inhibition at 10 µM against human TASK-1 (10 μM) worked out at 70%. This compound yielded an inhibition at 100 µM against human TASK-1 (100 μM) of 70%.

Values taken from PMC12131194, “Rational design, synthesis, and evaluation of novel polypharmacological compounds targeting NaV1.5, KV1.5, and K2P channels for atrial fibrillation” (The Journal of Biological Chemistry, 2025).
